From US12377077B2, “Methods and formulations to treat mitochondrial dysfunction” (The Board of Trustees of the Leland Stanford Junior …, priority 2018, dated 2025)
Entries after “also recorded” stand apart in the source; their conditions may differ.

Tests used:
[1] = test system: NGLY1 deficient fibroblasts; assay: Cell viability by Calcein AM in mitochondrial stressor media; assay type: cell-based, human; conditions: NGLY-1 deficient fibroblasts from three individuals; +PT1 vs −PT1; FIG. 2E
Experimental: (§1) Fibroblasts previously derived from four patients with primary mitochondrial disease (Surf1, Complex I, Cox10, Polg), three patients with NGLY1 deficiency and four normal controls were used for the study. All samples were obtained with informed consent and approved by the Stanford IRB. Fibroblasts were maintained in DMEM medium containing 8.3 mM glucose and supplemented with 10% fetal bovine serum (FBS)(Fisher Scientific), 1% Penicillin-Streptomycin (10,000 U/mL)(Life Technologies), 1% glutaMAX (Life Technologies), 1% uridine (5 mg/ml) and 1% pyruvate (11 mg/ml) at 37° C., 5% CO2.
(§2) For the screening of various compounds, 15×10^3 cells/500 ul media were seeded in quadruplets on 24 well microtiter plates. The following day, the medium was removed, wells washed with PBS and replaced with a mitochondrial stressor media containing DMEM, 1% Penicillin-Streptomycin (10,000 U/mL)(Life Technologies), 10% FCS (Fisher Scientific), 1 mM Galactose (Sigma Aldrich), and 25 μM sodium azide with or without the following compounds: 1 mM AICAR (Medchem Express), 1 mM Metformin (Sigma Aldrich), 100 μM PT1 (Santa Cruz Biotechnology), 100 μM A-769662 (Medchem Express), 100 μM C24 (Medchem Express). Following treatment with the various compounds, tissue cultures were analyzed for growth, oxygen consumption rate, and ATP levels.
(§3) Methods: Cell growth was measured by a fluorometric method using Calcein AM (Anaspec). Mitochondrial stressor media was removed, wells washed with PBS and then incubated with 500 ul/well of 800 nM Calcein AM in PBS for 30 min at 37 C, 5% CO2. Cell viability was measured by values obtained using a 485 nm excitation with the Flouroskan Ascent Microplate Fluorometer (Thermo Scientific).

CI-deficient fibroblasts = assay: as above; assay type: cell-based, human; conditions: FIG. 2C
Experimental: as §1, §2, §3

Compound: Cc1cc(-c2ccc(C=C3SC(=S)N(c4ccc(Cl)c(C(=O)O)c4)C3=O)o2)c([N+](=O)[O-])cc1C [PT1]
- improvement in viability [1]: ≤ 60% and up to 60%
- survival / viability (CI-deficient fibroblasts): improves survival; also recorded: significantly improved survival
